In patent publication US20150175603A1, “TRICYCLIC COMPOUNDS AS KAT II INHIBITORS” (PFIZER INC., priority 2012, published 2015) one finds IC50 data, which are given here for 32 molecules.

Counter-ions that a name gives are not always drawn. Like-named read-outs stand apart in the source and are kept apart here.

This assay addresses human KAT II (hKAT II) enzyme (Homo sapiens, UniProt Q8N5Z0). The experiment in a line: KAT II Inhibition Spectra Assay. The format is biochemical. The conditions noted are these: single determination unless marked a (geometric mean of 2-4 determinations), decrease in OD370, L-kynurenine substrate, 37° C. for 15-20 h, read-out: KATII IC50. The protocol:
KAT II Inhibition Spectra Assay
Formation of kynurenic acid (KYNA) is indirectly assessed by a decrease in light absorbance at 370 nm (OD370) as the L-kynurenine (KYN) substrate is converted by the human KAT II (hKAT II) enzyme into KYNA. An inhibitor would therefore inhibit the decrease in OD370.
The protocol was performed by placing the following reagents into a Costar 384 well black plate (30 μL total assay volume/well): • 10 μL of 3× concentrated compound; • 10 μL of 3× concentrated substrate mix (BGG (Sigma G-5009); 3 mM L-Kynurenine in 150 mM Tris Acetate (Sigma K3750); 3 mM α-ketoglutaric acid in 150 mM Tris Acetate (Sigma K2010); and 210 μM pyridoxal 5-phosphate (PLP) in 150 mM Tris Acetate (Sigma 9255)); and • 10 μL of 3× concentrated enzyme (15 nM enzyme in 150 mM Tris Acetate with 0.3% bovine serum).
Plates were sealed and incubated at 37° C. for 15-20 h before reading OD370 on a SpectraMax Plus plate reader. IC50s were generated by comparing the efficacy of compounds across a concentration range to inhibit a reduction in the OD370 value relative to assay wells with DMSO added in place of concentrated compound. Biological data for the Examples may be found in Table 2.

Chain of human KAT II (hKAT II) enzyme (Q8N5Z0 30-425): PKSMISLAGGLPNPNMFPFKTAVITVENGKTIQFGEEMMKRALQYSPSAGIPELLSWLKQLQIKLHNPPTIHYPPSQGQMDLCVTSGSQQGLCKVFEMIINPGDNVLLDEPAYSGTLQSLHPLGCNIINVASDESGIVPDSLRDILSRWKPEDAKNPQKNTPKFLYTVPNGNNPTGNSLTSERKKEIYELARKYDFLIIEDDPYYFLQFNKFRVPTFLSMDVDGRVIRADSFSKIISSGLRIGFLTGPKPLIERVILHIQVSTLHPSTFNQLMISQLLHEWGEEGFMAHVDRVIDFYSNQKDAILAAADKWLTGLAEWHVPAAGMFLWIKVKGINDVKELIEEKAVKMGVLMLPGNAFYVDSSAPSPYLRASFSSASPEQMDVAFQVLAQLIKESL

What is called IC50 is the midpoint of a concentration-inhibition curve. Take `NC1Cc2cc(-c3cccc(C(F)(F)F)c3)ccc2-n2c1n[nH]c2=O` (centres unmarked) [Example 27, 4—amino—7—[3—(trifluoromethyl)phenyl]—4,5—dihydro[1,2,4]triazolo[4,3-a]quinolin—1(2H)—one, trifluoroacetate salt]: the IC50 is 0.215 µM. Same read-out and setting: the result for `Cn1cc(-c2ccc3c(c2)CC(N)c2n[nH]c(=O)n2-3)cn1` (centres unmarked) [Example 18, 4—amino—7—(1—methyl—1H—pyrazol—4—yl)—4,5—dihydro[1,2,4]triazolo[4,3—a]quinolin—1(2H)—one, trifluoroacetate salt] reads 1.36 µM; that for `COc1ccc(F)cc1-c1ccc2c(c1)CC(N)c1n[nH]c(=O)n1-2` (centres unmarked) [Example 32, 4—amino—7—(5—fluoro—2—methoxyphenyl)—4,5—dihydro[1,2,4]triazolo[4,3—a]quinolin—1(2H)—one, trifluoroacetate salt], 0.302 µM. With `NC1Cc2cc(Oc3ccccc3)ncc2-n2cnnc21` (centres unmarked) [Example 7, 7-Phenoxy-4,5-dihydro[1,2,4]triazolo[4,3-a][1,7]naphthyridin-4-amine, hydrochloride salt], the IC50 was found to be 0.413 µM. The same measure, in the same setting: under `Cc1ccc(C)c(-c2ccc3c(c2)CC(N)c2n[nH]c(=O)n2-3)c1` (centres unmarked) [Example 38, 4—amino—7—(2,5-dimethylphenyl)—4,5—dihydro[1,2,4]triazolo[4,3—a]quinolin—1(2H)—one, trifluoroacetate salt] stands 0.591 µM; under `NC1Cc2cc(-c3cccnc3)ccc2-n2c1n[nH]c2=O` (centres unmarked) [Example 20, 4—amino—7—(pyridin—3—yl)—4,5—dihydro[1,2,4]triazolo[4,3—a]quinolin—1(2H)—one, trifluoroacetate salt], 0.546 µM; under `NC1Cc2cc(-c3ccc(F)cc3)ccc2-n2c1n[nH]c2=O` (centres unmarked) [Example 24, 4—amino—7—(4—fluorophenyl)—4,5—dihydro[1,2,4]triazolo[4,3—a]quinolin—1(2H)—one. trifluoroacetate salt], 1.08 µM. Take `COc1cccc(Oc2ccc3c(c2)C[C@H](N)c2noc(=O)n2-3)c1` [Example 6, (4S)-4-Amino-7-(3-methoxyphenoxy)-4,5-dihydro[1,2,4]oxadiazolo[4,3-a]quinolin-1-one, hydrochloride salt]: the concentration for half-maximal inhibition (IC50) worked out at 0.39 µM. Still for that read-out and setting: under `Cc1ccccc1-c1ccc2c(c1)CC(N)c1n[nH]c(=O)n1-2` (centres unmarked) [Example 31, 4—amino—7—(2—methylphenyl)—4,5—dihydro[1,2,4]triazolo[4,3—a]quinolin—1(2H)—one, trifluoroacetate salt] stands 0.66 µM; under `NC1Cc2cc(Oc3cccc(C(F)(F)F)c3)ccc2-n2c1n[nH]c2=O` (centres unmarked) [Example 3, 4-amino-7-[3-(trifluoromethyl)phenoxy]-4,5-dihydro[1,2,4]triazolo[4,3-a]quinolin-1(2H)-one, hydrochloride salt], 0.0914 µM; under `Cn1nccc1-c1ccc2c(c1)CC(N)c1n[nH]c(=O)n1-2` (centres unmarked) [Example 36, 4—amino—7—(1—methyl—1H—pyrazol—5—yl)—4,5—dihydro[1,2,4]triazolo[4,3—a]quinolin—1(2H)—one, trifluoroacetate salt], 0.632 µM. For `COc1cccc(Oc2ccc3c(c2)CC(N)c2n[nH]c(=O)n2-3)c1` (single isomer, unassigned; ent-1) [Example 1, 4-Amino-7-(3-methoxyphenoxy)-4,5-dihydro[1,2,4]triazolo[4,3-a]quinolin-1(2H)-one ENT-1, hydrochloride salt], under “hydrochloride salt”, the IC50 worked out at 0.188 µM.

In the case of `NC1Cc2cc(-c3ccccc3C(F)(F)F)ccc2-n2c1n[nH]c2=O` (centres unmarked) [Example 40, 4—amino—7—[2—(trifluoromethyl)phenyl]—4,5—dihydro[1,2,4]triazolo[4,3—a]quinolin—1(2H)—one, trifluoroacetate salt], the IC50 is 0.32 µM. Same read-out and setting: the result for `CCOc1cc(-c2ccc3c(c2)CC(N)c2n[nH]c(=O)n2-3)ccn1` (centres unmarked) [Example 17, 4—amino—7—(2—ethoxypyridin—4—yl)—4,5—dihydro[1,2,4]triazolo[4,3—a]quinolin—1(2H)—one, trifluoroacetate salt] reads 1.83 µM; that for `NC1Cc2cc(-c3cccc(Cl)c3)ccc2-n2c1n[nH]c2=O` (centres unmarked) [Example 14, 4—amino—7—(3—chlorophenyl)—4,5—dihydro[1,2,4]triazolo[4,3—a]quinolin—1(2H)—one, trifluoroacetate salt], 0.156 µM.

Regarding `Cn1ncc2c(-c3ccc4c(c3)CC(N)c3n[nH]c(=O)n3-4)cccc21` (centres unmarked) [Example 15, 4—amino—7(1—methyl—1H—indazol—4—yl)—4,5—dihydro[1,2,4]triazolo[4,3—a]quinolin—1(2H)—one, trifluoroacetate salt], the IC50 was 0.262 µM. Consider `NC1Cc2cc(-c3ccccc3F)ccc2-n2c1n[nH]c2=O` (centres unmarked) [Example 29, 4—amino—7—(2—fluorophenyl)—4,5—dihydro[1,2,4]triazolo[4,3—a]quinolin—1(2H)—one, trifluoroacetate salt], for which the half-maximal inhibitory concentration (IC50) is 0.361 µM. In the case of `NC1Cc2cc(Oc3ccccc3)cnc2-n2cnnc21` (single isomer, unassigned) [Example 8, 3—phenoxy—5,6—dihydro[1,2,4]triazolo[4,3—a][1,8]naphthyridin—6—amine ENT—1], the IC50 is 0.286 µM. On the same count and under the same terms, under `COc1ccccc1-c1ccc2c(c1)CC(N)c1n[nH]c(=O)n1-2` (centres unmarked) [Example 19, 4—amino—7—(2—methoxyphenyl)—4,5—dihydro[1,2,4]triazolo[4,3—a]quinolin—1(2H)—one, trifluoroacetate salt] stands 0.751 µM.

`NC1Cc2cc(-c3cccc4ncccc34)ccc2-n2c1n[nH]c2=O` (centres unmarked) [Example 16, 4—amino—7—(quinolin—5—yl)—4,5—dihydro[1,2,4]triazolo[4,3—a]quinolin—1(2H)—one, trifluoroacetate salt]: the IC50 stood at 0.664 µM. The same measure, in the same setting: the result for `NC1Cc2cc(Oc3cccc(C(F)(F)F)c3)ccc2-n2cnnc21` (centres unmarked) [Example 10, 7—[3—(trifluoromethyl)phenoxy]—4,5—dihydro[1,2,4]triazolo[4,3—a]quinolin—4—amine, hydrochloride salt] reads 0.185 µM; that for `COc1cc2c(cc1Cc1ccccc1)CC(N)c1nncn1-2` (centres unmarked) [Example 46, 7—benzyl—8—methoxy—4,5—dihydro[1,2,4]triazolo[4,3—a]quinolin—4—amine, hydrochloride salt], 1.13 µM. In the case of `COc1ncccc1-c1ccc2c(c1)CC(N)c1n[nH]c(=O)n1-2` (centres unmarked) [Example 33, 4—amino—7—(2—methoxypyridin—3—yl)—4,5—dihydro[1,2,4]triazolo[4,3—a]quinolin—1(2H)—one, trifluoroacetate salt], the IC50 came out at 0.197 µM.

Regarding `CCOc1ccc(Cl)cc1-c1ccc2c(c1)CC(N)c1n[nH]c(=O)n1-2` (centres unmarked) [Example 39, 4—amino—7—(5—chloro—2—ethoxyphenyl)—4,5—dihydro[1,2,4]triazolo[4,3—a]quinolin—1(2H)—one, trifluoroacetate salt], the IC50 was found to be 0.968 µM.

Regarding `NC1Cc2cc(-c3cccc(OC(F)(F)F)c3)ccc2-n2c1n[nH]c2=O` (centres unmarked) [Example 23, 4—amino—7—[3—(trifluoromethoxy)pheny1]—4,5—dihydro[1,2,4]triazolo[4,3—a]quinolin—1(2H)—one, trifluoroacetate salt], the IC50 is 0.684 µM. For `COc1cccc(Oc2ccc3c(c2)CC(N)c2n[nH]c(=O)n2-3)c1` (single isomer, unassigned; ent-2) [Example C9, 4-amino-7-(3-methoxyphenoxy)-4,5-dihydro[1,2,4]triazolo[4,3-a]quinolin-1(2H)-one ENT-2, hydrochloride salt], the IC50 was 3.72 µM. In the case of `COc1cccc(Oc2ccc3c(c2)CC(N)c2nncn2-3)c1` (single isomer, unassigned; ent-2) [Example 5, 7-(3-Methoxyphenoxy)-4,5-dihydro[1,2,4]triazolo[4,3-a]quinolin-4-amine, ENT-2], the IC50 came to 1.24 µM. Turning to `NC1Cc2cc(Oc3ccccc3)ccc2-n2c1n[nH]c2=O` (centres unmarked) [Example 48, 4—amino—7—phenoxy—4,5—dihydro[1,2,4]triazolo[4,3—a]quinolin—1(2H)—one, hydrochloride salt], the IC50 was determined as 0.0837 µM.

Take `Cc1cc(-c2ccc3c(c2)CC(N)c2n[nH]c(=O)n2-3)cnc1F` (centres unmarked) [Example 43, 4—amino—7—(6—fluoro—5—methylpyridin—3—yl)—4,5—dihydro[1,2,4]triazolo[4,3—a]quinolin—1(2H)—one, trifluoroacetate salt]: the IC50 came out at 0.263 µM. Consider `NC1Cc2cc(-c3cccc4cnccc34)ccc2-n2c1n[nH]c2=O` (centres unmarked) [Example 12, 4—amino—7—(isoquinolin—5—yl)—4,5—dihydro[1,2,4]triazolo[4,3—a]quinolin—1(2H)—one, trifluoroacetate salt], for which the IC50 worked out at 0.334 µM.

For the molecule `NC1Cc2cc(Cc3ccccc3)ccc2-n2c1n[nH]c2=O` (centres unmarked) [Example 44, 4—amino—7—benzyl—4,5—dihydro[1,2,4]triazolo[4,3—a]quinolin—1(2H)—one, hydrochloride salt], the IC50 is 0.426 µM. Same read-out and setting: under `NC1Cc2cc(Oc3ccccc3)cnc2-n2cnnc21` (single isomer, unassigned) [Example 9, 3—phenoxy—5,6—dihydro[1,2,4]triazolo[4,3—a][1,8]naphthyridin—6—amine ENT—2] stands 1.31 µM.
